Here are results for 1 compound from patent publication US20240279230A1, “CRYSTALLINE FORMS OF A HER2 INHIBITOR” (Boehringer Ingelheim International GmbH, priority 2022, published 2024).

Type in all cases: physicochemical
Series [1] can be described thus: Temperature stress tests with form I, form II and form VI, PXRD. The following applies: 6 h at 150° C. (closed vial).
Series [2] is described as follows: Dynamic Vapor Sorption (DVS) sorption isotherms, hygroscopic behaviour. The following applies: for Hygroscopicity: DVS classification; for Δm (0-80%), moisture absorbed at 80% RH / Δm (0-90%), maximum water uptake: DVS, 25.0 ±1.0° C.; for Δm (0-90%), maximum water uptake: up to 90% RH; for Hysteresis: between sorption and desorption curves. How it is done: The methodology for this can be as follows. The mass of the solids is monitored as the relative humidity (RH) was deliberately changed. The RH is cycled twice from 0% to 90% to 0% in 10% steps. The temperature during measurement is kept constantly at (25.0 ±1.0° C.) Each step is held until mass stability was achieved. A camera inside the instrument captured an image at the conclusion of each stage, allowing for the observation of any visual changes in the solid form during the analysis.

The nature of series [3]: Thermogravimetric Analysis (TGA). The conditions noted are these: Decomposition; 20° C./min. How it is done:
The methodology for this can be as follows. Solid compounds (˜5 mg) are placed in an aluminium pan and sealed. The instrument used for the analysis is a TA Instruments TGA 550. The same sample lots from DSC testing are used for TGA testing. Processing is completed using TRIOS software.

“Also recorded” adds a separate entry of the source.

Take `C=CC(=O)NC1CCN(c2ncc3ncnc(Nc4ccc(Oc5ccc6c(c5)ncn6C)c(C)c4)c3n2)CC1` [Form I, N-{1-[8-({3-methyl-4-[(1-methyl-1H-1,3-benzodiazol-5-yl)oxy]phenyl}amino)-[1,3]diazino[5,4-d]pyrimidin-2-yl]piperidin-4-yl}prop-2-enamide]: the “PXRD of stressed sample” value in series [1] was “Form I”. For the same compound, the “PXRD of stressed sample” value in series [1] (listed as form I) is “remained unchanged; also recorded: polymorphically stable”. Moreover, in series [2], the Hygroscopicity result is “hygroscopic”; the “Δm (0-80%), moisture absorbed at 80% RH” value came out at 5.4 wt %; the “Δm (0-90%), maximum water uptake” value was 7.3 wt %; the Hysteresis result is “yes”. Besides, in series [2] (listed as form I), the Hygroscopicity entry is listed as “hygroscopic”; the “Δm (0-80%), moisture absorbed at 80% RH” value turned out to be 5.4 wt %; the “Δm (0-90%), maximum water uptake” value is recorded as 7.3 wt %; the Hysteresis entry is recorded as “significant hysteresis”. For the same compound, the “Phase change during DVS experiment” value in series [2] (RH cycled twice 0% to 90% to 0%) was “no irreversible phase changes”. Also, in series [3], the “TGA change in mass” value worked out at 47.883%, the TGA end is 463.12 °C and the TGA onset amounted to 419.14 °C.
